# Test results from ChEMBL document CHEMBL5244223, “l,8-Naphthalimide based DNA intercalators and anticancer agents. A systematic review from 2007 to 2017” (Eur J Med Chem, 2018).
# Columns and labels:
# L1210 = test: Antiproliferative activity against mouse L1210 cells assessed as inhibition of cell proliferation incubated for 48 hrs by coulter counter assay; assay type: functional, cell-based; settings: L1210, 48 h
# CCRF-CEM = test: Antiproliferative activity against human CEM cells assessed as inhibition of cell proliferation incubated for 48 hrs by coulter counter assay; assay type: functional, cell-based
# HeLa [1] = test: Antiproliferative activity against human HeLa cells assessed as inhibition of cell proliferation incubated for 48 hrs by coulter counter assay; assay type: functional, cell-based
# [2] = Antiproliferative activity against human HMEC-1 cells assessed as inhibition of cell proliferation incubated for 48 hrs by coulter counter assay; assay type: toxicity, cell-based
# HCT-116 = test: Antiproliferative activity against human HCT-116 cells assessed as inhibition of cell proliferation incubated for 48 hrs by MTT assay; assay type: functional, cell-based; settings: HCT-116, 48 h
# HepG2 = test: Antiproliferative activity against human HepG2 cells assessed as inhibition of cell proliferation incubated for 48 hrs by MTT assay; assay type: functional, cell-based; settings: HepG2, 48 h
# SMMC-7721 = test: Antiproliferative activity against human SMMC-7721 cells assessed as inhibition of cell proliferation incubated for 48 hrs by MTT assay; assay type: functional, cell-based; settings: SMMC-7721, 48 h
# K562 = test: Antiproliferative activity against human K562 cells assessed as inhibition of cell proliferation incubated for 48 hrs by MTT assay; assay type: functional, cell-based; settings: K562, 48 h
# MDA-MB-231 = test: Antiproliferative activity against human MDA-MB-231 cells assessed as inhibition of cell proliferation incubated for 48 hrs by MTT assay; assay type: functional, cell-based; settings: MDA-MB-231, 48 h
# A549 = test: Cytotoxicity against human A549 cells assessed as inhibition of cell growth incubated for 48 hrs by MTT assay; assay type: functional, cell-based; settings: A549, 48 h
# HeLa [3] = test: Cytotoxicity against human HeLa cells assessed as inhibition of cell growth incubated for 48 hrs by MTT assay; assay type: functional, cell-based
IC50 (HepG2) [µM],IC50 (SMMC-7721) [µM],Structure (SMILES),IC50 (L1210) [µM],IC50 (CCRF-CEM) [µM],IC50 (HeLa [1]) [µM],IC50 at 48 h [2] [µM],other results
,,CCOP(=O)(CCn1cc(CN2C(=O)c3cccc4c(Br)ccc(c34)C2=O)nn1)OCC,> 250,> 250,> 250,> 250,
> 50,> 50,CCCOC(=O)c1ccc2c3c(cccc13)C(=O)N(CCN(C)C)C2=O,,,,,IC50 (HCT-116): > 50 µM; IC50 (K562): > 50 µM
,,CCOP(=O)(CC(=O)NCn1cc(CN2C(=O)c3cccc4c(Br)ccc(c34)C2=O)nn1)OCC,> 250,> 250,> 250,> 250,
,,CCOP(=O)(CCOCCn1cc(CN2C(=O)c3cccc4cccc(c34)C2=O)nn1)OCC,> 250,> 250,> 250,> 250,
2.64,2.64,CN(C)CCN1C(=O)c2cccc3c2c(cc2c(=O)[nH]cnc23)C1=O,,,,,IC50 (MDA-MB-231): 2.64 µM
25.9,13.7,CCOC(=O)c1ccc2c3c(cccc13)C(=O)N(CCN(C)C)C2=O,,,,,IC50 (HCT-116): > 50 µM; IC50 (K562): > 50 µM
2.64,2.64,NCCCCN1C(=O)c2cccc3c2c(cc2c(=O)[nH]cnc23)C1=O,,,,,IC50 (MDA-MB-231): 2.64 µM
2.64,2.64,CCCCN1C(=O)c2cccc3c2c(cc2c(=O)[nH]cnc23)C1=O,,,,,IC50 (MDA-MB-231): 2.64 µM
1.61,1.61,NCCCN1C(=O)c2cccc3cccc(c23)C1=O,,,,,
,,COc1cccc(-c2cc(C(F)(F)F)nn2-c2ccc3c4c(cccc24)C(=O)N(CCN(C)C)C3=O)c1,,,,,IC50 (A549): 5.06 µM; IC50 (HeLa [3]): 5.06 µM
22.1,22.1,COC(=O)c1ccc2c3c(cccc13)C(=O)N(CCN(C)C)C2=O,,,,,IC50 (HCT-116): > 50 µM; IC50 (K562): > 50 µM
,,CCOP(=O)(CCOCCn1cc(CN2C(=O)c3cccc4cc([N+](=O)[O-])cc(c34)C2=O)nn1)OCC,> 250,> 250,> 250,> 250,
> 50,> 50,CCCCCCCCCCCCCCOC(=O)c1ccc2c3c(cccc13)C(=O)N(CCN(C)C)C2=O,,,,,IC50 (HCT-116): > 50 µM; IC50 (K562): > 50 µM
,,CCCCOc1ccccc1-c1cc(C(F)(F)F)nn1-c1ccc2c3c(cccc13)C(=O)N(CCN(C)C)C2=O,,,,,IC50 (A549): 5.06 µM; IC50 (HeLa [3]): 5.06 µM
1.12,1.12,CN(C)CCN1C(=O)c2cccc3c2c(cc2c(NCCCCN)ncnc23)C1=O,,,,,IC50 (MDA-MB-231): 1.12 µM
,,CCOP(=O)(CC(O)Cn1cc(CN2C(=O)c3cccc4cccc(c34)C2=O)nn1)OCC (stereo not drawn),> 250,> 250,> 250,> 250,
> 50,> 50,CCCCCOC(=O)c1ccc2c3c(cccc13)C(=O)N(CCN(C)C)C2=O,,,,,IC50 (HCT-116): > 50 µM; IC50 (K562): > 50 µM
,,CCOc1cccc(-c2cc(C(F)(F)F)nn2-c2ccc3c4c(cccc24)C(=O)N(CCN(C)C)C3=O)c1,,,,,IC50 (A549): 5.06 µM; IC50 (HeLa [3]): 5.06 µM
,,CCOP(=O)(Cn1cc(CN2C(=O)c3cccc4c(Br)ccc(c34)C2=O)nn1)OCC,> 250,> 250,> 250,> 250,
,,CCOP(=O)(CCCCn1cc(CN2C(=O)c3cccc4c(Br)ccc(c34)C2=O)nn1)OCC,> 250,> 250,> 250,> 250,
,,CCOP(=O)(CC(=O)NCn1cc(CN2C(=O)c3cccc4cccc(c34)C2=O)nn1)OCC,> 250,> 250,> 250,> 250,
,,CCCOc1cc(OCCC)cc(-c2cc(C(F)(F)F)nn2-c2ccc3c4c(cccc24)C(=O)N(CCN(C)C)C3=O)c1,,,,,IC50 (A549): 5.06 µM; IC50 (HeLa [3]): 5.06 µM
,,CCOP(=O)(CCCCn1cc(CN2C(=O)c3cccc4cc([N+](=O)[O-])cc(c34)C2=O)nn1)OCC,> 250,> 250,> 250,> 250,
2.64,2.64,O=C1c2cccc3c2c(cc2c(=O)[nH]cnc23)C(=O)N1CCCCN1CCOCC1,,,,,IC50 (MDA-MB-231): 2.64 µM
,,CCOP(=O)(CC(O)Cn1cc(CN2C(=O)c3cccc4cc([N+](=O)[O-])cc(c34)C2=O)nn1)OCC (stereo not drawn),> 250,> 250,> 250,> 250,
2.86,,NCCCNCCCNCC(=O)NCCCN1C(=O)c2cccc3cccc(c23)C1=O,,,,,IC50 (MDA-MB-231): 2.86 µM; IC50 (HCT-116): 2.86 µM; IC50 (K562): 2.86 µM
,,COc1cc(OC)cc(-c2cc(C(F)(F)F)nn2-c2ccc3c4c(cccc24)C(=O)N(CCN(C)C)C3=O)c1,,,,,IC50 (A549): 5.06 µM; IC50 (HeLa [3]): 5.06 µM
,,CCOc1ccc(-c2cc(C(F)(F)F)nn2-c2ccc3c4c(cccc24)C(=O)N(CCN(C)C)C3=O)cc1,,,,,IC50 (A549): 5.06 µM; IC50 (HeLa [3]): 5.06 µM
